Assay results as given in patent US8871753B2, “Macrocyclic compounds and their use as kinase inhibitors” (Incyte Corporation, priority 2008, dated 2014).
pIC50: −log10 of the molar value. Structures can show the parent of a compound that is named as a salt. Where two headings read alike, the source gives them in different places.

What was measured:
Assay type in all cases: biochemical
[1] = target: T1, human JAK3 (a.a. 781-1124) (Homo sapiens, UniProt P52333); assay: In vitro JAK kinase assay (HTRF, phosphorylation of a biotinylated peptide), JAK3
T1 construct: JAK3 (a.a. 781-1124); His tag (N); made in house; host or cells: insect cells (baculovirus)
How it was run: (§1)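 Kinase activity was measured as phosphorylation of a biotinylated peptide, with ATP at 90 μM for JAK1, 30 μM for JAK2 and 3 μM for JAK3. Reactions ran 1 hr at room temperature, were stopped with EDTA plus SA-APC and Eu-Py20, and were read by HTRF after 40 minutes of antibody binding.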

[2] = target: T2, Recombinant Human Anaplastic Lymphoma Kinase (Homo sapiens, UniProt Q9UM73); assay: ALK HTRF kinase assay
T2 construct: purchased Invitrogen, Carlsbad, Calif
How it was run: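 Kinase activity of the recombinant human protein is measured on a biotinylated peptide, with a Eu-W1024 anti-phosphotyrosine antibody and streptavidin-allophycocyanin generating the homogeneous time-resolved fluorescence signal. Inhibition curves are fitted to yield IC50.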

[3] = target: T3, human JAK1 (a.a. 837-1142) (Homo sapiens, UniProt P23458); assay: In vitro JAK kinase assay (HTRF, phosphorylation of a biotinylated peptide), JAK1; settings: read-out: JAK1 IC50
T3 construct: human JAK1 (a.a. 837-1142); His tag (N); made in house; host or cells: insect cells (baculovirus)
How it was run: as §1

TYK2 = TYK2 (Homo sapiens, UniProt P29597); assay: TYK2 kinase inhibition (Table A1)
[4] = target: T4, human JAK2 (a.a. 828-1132) (Homo sapiens, UniProt O60674); assay: In vitro JAK kinase assay (HTRF, phosphorylation of a biotinylated peptide), JAK2
T4 construct: JAK2 (a.a. 828-1132); His tag (N); made in house; host or cells: insect cells (baculovirus)
How it was run: as §1

[5] = Table B1, cells without percent sign
[6] = method AA1 (3 μM ATP) or AA2 (1000 μM ATP), not stated per value
[7] = compound at 500 nM or 1 mM, 90 μM ATP
[8] = method AA1 (90 μM ATP) or AA2 (1000 μM ATP), not stated per value
[9] = method AA1 (30 μM ATP) or AA2 (1000 μM ATP), not stated per value
[10] = compound at a concentration of 500 nM or 1 mM (not specified), cells shown as percentage

T1 sequence (P52333 781-1124): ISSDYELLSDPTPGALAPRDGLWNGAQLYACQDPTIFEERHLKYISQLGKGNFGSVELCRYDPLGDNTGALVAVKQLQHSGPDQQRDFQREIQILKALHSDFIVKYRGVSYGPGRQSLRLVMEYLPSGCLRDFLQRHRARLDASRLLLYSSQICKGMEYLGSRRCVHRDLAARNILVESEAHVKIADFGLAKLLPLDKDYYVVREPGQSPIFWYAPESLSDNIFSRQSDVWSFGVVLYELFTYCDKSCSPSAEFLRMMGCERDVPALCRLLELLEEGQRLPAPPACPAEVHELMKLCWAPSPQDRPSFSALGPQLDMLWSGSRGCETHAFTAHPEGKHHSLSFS
T2 sequence (Q9UM73 19-1620): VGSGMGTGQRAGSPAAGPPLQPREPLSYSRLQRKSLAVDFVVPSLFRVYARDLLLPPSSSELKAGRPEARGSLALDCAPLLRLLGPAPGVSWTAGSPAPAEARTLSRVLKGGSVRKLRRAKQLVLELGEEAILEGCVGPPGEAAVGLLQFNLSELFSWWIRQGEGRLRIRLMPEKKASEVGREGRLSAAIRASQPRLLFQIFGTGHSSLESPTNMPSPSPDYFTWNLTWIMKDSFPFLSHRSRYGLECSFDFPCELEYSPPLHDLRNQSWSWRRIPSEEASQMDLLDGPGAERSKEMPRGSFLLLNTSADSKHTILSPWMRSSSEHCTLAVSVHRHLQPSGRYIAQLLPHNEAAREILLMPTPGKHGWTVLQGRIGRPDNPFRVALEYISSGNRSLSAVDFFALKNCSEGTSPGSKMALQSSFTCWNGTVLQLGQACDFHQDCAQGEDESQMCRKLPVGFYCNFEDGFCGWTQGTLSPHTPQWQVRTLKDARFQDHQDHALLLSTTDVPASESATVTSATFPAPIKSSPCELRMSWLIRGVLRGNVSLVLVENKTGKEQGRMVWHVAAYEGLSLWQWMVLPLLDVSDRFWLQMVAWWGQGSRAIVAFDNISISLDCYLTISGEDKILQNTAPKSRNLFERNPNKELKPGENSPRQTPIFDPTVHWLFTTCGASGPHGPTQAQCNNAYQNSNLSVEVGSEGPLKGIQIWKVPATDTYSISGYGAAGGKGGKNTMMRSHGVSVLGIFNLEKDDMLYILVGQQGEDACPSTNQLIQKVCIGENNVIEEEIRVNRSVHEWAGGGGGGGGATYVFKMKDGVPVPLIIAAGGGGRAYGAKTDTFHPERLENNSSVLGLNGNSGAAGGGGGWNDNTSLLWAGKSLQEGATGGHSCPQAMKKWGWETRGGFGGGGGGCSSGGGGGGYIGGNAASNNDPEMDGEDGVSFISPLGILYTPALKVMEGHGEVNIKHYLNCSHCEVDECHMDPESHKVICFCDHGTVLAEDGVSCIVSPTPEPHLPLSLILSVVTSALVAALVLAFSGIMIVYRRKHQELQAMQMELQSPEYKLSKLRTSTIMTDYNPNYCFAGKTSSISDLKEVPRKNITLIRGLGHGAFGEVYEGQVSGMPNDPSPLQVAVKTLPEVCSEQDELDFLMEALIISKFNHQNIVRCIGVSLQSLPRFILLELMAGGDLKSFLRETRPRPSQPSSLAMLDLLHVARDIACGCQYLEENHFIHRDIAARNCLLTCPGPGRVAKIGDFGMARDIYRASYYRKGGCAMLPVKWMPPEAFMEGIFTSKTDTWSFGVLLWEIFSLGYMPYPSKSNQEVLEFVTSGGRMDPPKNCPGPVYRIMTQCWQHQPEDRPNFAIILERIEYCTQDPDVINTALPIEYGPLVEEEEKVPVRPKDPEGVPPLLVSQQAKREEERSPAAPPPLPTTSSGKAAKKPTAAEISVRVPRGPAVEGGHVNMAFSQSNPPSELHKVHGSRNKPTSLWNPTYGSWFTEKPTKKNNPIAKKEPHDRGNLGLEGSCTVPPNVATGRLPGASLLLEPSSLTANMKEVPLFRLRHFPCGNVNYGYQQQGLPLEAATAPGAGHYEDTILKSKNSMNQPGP
T3 sequence (P23458 849-1154): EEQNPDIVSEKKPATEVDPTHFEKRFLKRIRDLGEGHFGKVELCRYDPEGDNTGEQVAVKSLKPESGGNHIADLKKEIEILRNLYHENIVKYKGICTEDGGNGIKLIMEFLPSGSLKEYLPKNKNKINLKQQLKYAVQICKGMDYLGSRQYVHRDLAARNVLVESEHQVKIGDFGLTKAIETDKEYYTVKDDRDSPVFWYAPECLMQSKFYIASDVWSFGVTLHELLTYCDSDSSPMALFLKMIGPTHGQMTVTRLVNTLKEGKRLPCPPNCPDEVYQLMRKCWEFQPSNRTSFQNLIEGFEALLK
T4 sequence (O60674 828-1132): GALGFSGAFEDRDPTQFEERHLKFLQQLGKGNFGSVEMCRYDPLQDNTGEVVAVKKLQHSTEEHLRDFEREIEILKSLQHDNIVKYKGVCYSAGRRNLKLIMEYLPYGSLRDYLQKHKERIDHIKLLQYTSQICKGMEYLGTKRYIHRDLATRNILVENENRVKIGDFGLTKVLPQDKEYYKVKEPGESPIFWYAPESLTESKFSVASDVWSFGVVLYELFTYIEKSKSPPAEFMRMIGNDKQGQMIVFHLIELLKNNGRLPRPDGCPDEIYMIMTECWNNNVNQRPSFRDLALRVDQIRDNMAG
Chain of TYK2 (P29597 whole entry): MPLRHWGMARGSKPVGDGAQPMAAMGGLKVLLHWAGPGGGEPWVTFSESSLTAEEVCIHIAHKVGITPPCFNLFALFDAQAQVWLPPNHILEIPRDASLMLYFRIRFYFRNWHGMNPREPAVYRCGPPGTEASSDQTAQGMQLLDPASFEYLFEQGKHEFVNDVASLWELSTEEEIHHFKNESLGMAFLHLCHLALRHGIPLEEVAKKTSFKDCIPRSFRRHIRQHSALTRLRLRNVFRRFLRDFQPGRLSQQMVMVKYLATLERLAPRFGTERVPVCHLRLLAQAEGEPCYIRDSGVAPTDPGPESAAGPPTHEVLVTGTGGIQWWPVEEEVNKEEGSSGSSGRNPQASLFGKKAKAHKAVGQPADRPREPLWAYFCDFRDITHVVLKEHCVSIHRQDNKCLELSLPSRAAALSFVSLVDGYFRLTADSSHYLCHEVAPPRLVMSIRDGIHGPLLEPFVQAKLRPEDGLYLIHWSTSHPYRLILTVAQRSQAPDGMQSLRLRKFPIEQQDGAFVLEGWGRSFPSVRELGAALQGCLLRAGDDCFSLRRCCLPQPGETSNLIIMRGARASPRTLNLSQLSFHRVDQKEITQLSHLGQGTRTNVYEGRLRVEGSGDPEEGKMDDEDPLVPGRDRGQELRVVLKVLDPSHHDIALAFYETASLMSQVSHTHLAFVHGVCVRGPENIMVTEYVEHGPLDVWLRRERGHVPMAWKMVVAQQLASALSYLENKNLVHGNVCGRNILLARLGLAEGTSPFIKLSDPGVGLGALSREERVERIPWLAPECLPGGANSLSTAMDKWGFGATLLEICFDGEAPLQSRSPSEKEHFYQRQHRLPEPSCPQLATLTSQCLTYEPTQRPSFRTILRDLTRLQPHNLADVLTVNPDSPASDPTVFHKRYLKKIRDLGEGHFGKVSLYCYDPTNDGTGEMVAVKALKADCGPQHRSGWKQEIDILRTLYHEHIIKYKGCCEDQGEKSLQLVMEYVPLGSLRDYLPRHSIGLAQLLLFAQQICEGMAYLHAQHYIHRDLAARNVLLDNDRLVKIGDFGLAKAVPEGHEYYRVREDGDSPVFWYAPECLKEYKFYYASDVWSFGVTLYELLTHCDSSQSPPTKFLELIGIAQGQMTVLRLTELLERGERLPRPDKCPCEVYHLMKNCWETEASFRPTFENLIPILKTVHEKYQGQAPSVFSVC

Compound	pIC50 ([1]; Table B1)	pIC50 [2, 5]	pIC50 ([3]; Table B1)	pIC50 (TYK2; Table B1)	pIC50 ([4]; Table B1)	pIC50 [1, 6]	ALK % of inhibition at a concentration of 500 nM or 1 mM [2, 7]	pIC50 [3, 8]	pIC50 (TYK2)	pIC50 [4, 9]	pIC50 ([2]; 90 μM ATP)	ALK % of inhibition at a concentration of 500 nM or 1 mM [2, 10]
O=S(=O)(c1ccc(Cl)cc1)c1ccc(CN2CCN(Cc3cc4cc(c3)Nc3nc(ncc3Cl)Nc3cccc(c3)CC4)CC2)cc1 [Example B195, 6-Chloro-11-[(4-{4-[(4-chlorophenyl)sulfonyl]benzyl}piperazin-1-yl)methyl]-2,4,8,22-tetraazatetracyclo[14.3.1.1(3,7).1(9,13)]docosa-1(20),3(22),4,6,9(21),10,12,16,18-nonaene tris(trifluoroacetate)]	< 6.00	< 5.00	< 6.00	< 6.00	7.04	–	–	–	–	–	–	–
O=C(CCNC(=O)Nc1ccccc1)Nc1ccc2cc1CCc1cccc(c1)Nc1ncc(Cl)c(n1)N2 [Example A67, 3-[(Anilinocarbonyl)amino]-N-[6-chloro-2,4,8,22-tetraazatetracyclo[14.3.1.1(3,7).1(9,13)]docosa-1(20),3(22),4,6,9(21),10,12,16,18-nonaen-12-yl]propanamide trifluoroacetate]	–	–	–	–	–	8.11	40%	8.10	8.00	8.55	–	–
O=C(Nc1ccc2cc1CCc1cccc(c1)Nc1ncc(Cl)c(n1)N2)[C@@H]1CCN(C(=O)c2ccccc2)C1 [Example A52, (3R)-1-Benzoyl-N-[6-chloro-2,4,8,22-tetraazatetracyclo[14.3.1.1(3,7).1(9,13)]docosa-1(20),3(22),4,6,9(21),10,12,16,18-nonaen-12-yl]pyrrolidine-3-carboxamide trifluoroacetate]	–	–	–	–	–	8.11	35%	8.66	7.82	8.35	–	–
O=C(CC1CCNC1)Nc1ccc2cc1CCc1cncc(c1)Nc1ncc(Cl)c(n1)N2 (stereo not shown) [Example A105, N-[6-Chloro-2,4,8,18,22-pentaazatetracyclo[14.3.1.1(3,7).1(9,13)]docosa-1(20),3(22),4,6,9(21),10,12,16,18-nonaen-12-yl]-2-pyrrolidin-3-ylacetamide tris(trifluoroacetate)]	–	–	–	–	–	6.95	23%	7.54	7.36	7.40	–	–
O=C(Nc1ccc2cc1CCc1cccc(c1)Nc1ncc(Cl)c(n1)N2)[C@@H]1CCCN1 [Example A110, (2S)—N-[6-Chloro-2,4,8,22-tetraazatetracyclo[14.3.1.1(3,7).1(9,13)]docosa-1(20),3(22),4,6,9(21),10,12,16,18-nonaen-12-yl]pyrrolidine-2-carboxamide bis(trifluoroacetate)]	–	–	–	–	–	7.85	45%	7.49	7.82	7.59	–	–
c1cc2cc(c1)Nc1ccnc(n1)Nc1cccc(c1)CC2 [Example A3, 2,4,8,22-Tetraazatetracyclo[14.3.1.1(3,7).1(9,13)]docosa-1(20),3(22),4,6,9(21),10,12,16,18-nonaene trifluoroacetate]	–	–	–	–	–	7.35	–	7.30	7.26	7.82	5.69	–
CSc1ccccc1NC(=O)Nc1ccc2cc1CCc1cccc(c1)Nc1ncc(Cl)c(n1)N2 [Example B107, N-[6-Chloro-2,4,8,22-tetraazatetracyclo[14.3.1.1(3,7).1(9,13)]docosa-1(20), 3(22),4,6,9(21),10,12,16,18-nonaen-12-yl]-N′-[2-(methylthio)phenyl]urea trifluoroacetate]	7.80	–	9.21	8.17	8.64	–	–	–	–	–	–	9.3%
O=C(Nc1ccc2cc1CCc1cccc(c1)Nc1ncc(Cl)c(n1)N2)c1ccccc1F [Example B38, N-[6-Chloro-2,4,8,22-tetraazatetracyclo[14.3.1.1(3,7).1(9,13)]docosa-1(20), 3(22),4,6,9(21),10,12,16,18-nonaen-12-yl]-2-fluorobenzamide trifluoroacetate]	8.40	6.68	8.85	9.01	9.59	–	–	–	–	–	–	–
O=C(CC1CCN(C(=O)Nc2ccccc2)C1)Nc1ccc2cc1CCc1cncc(c1)Nc1ncc(Cl)c(n1)N2 (stereo not shown) [Example A92, 3-(2-{[6-Chloro-2,4,8,18,22-pentaazatetracyclo[14.3.1.1(3,7).1(9,13)]docosa-1(20),3(22),4,6,9(21),10,12,16,18-nonaen-12-yl]amino}-2-oxoethyl)-N-phenylpyrrolidine-1-carboxamide bis(trifluoroacetate)]	–	–	–	–	–	7.10	61%	8.85	7.68	8.21	–	–
O=C(NCCO)Nc1ccc2cc1CCc1cccc(c1)Nc1ncc(Cl)c(n1)N2 [Example B241, N-[6-Chloro-2,4,8,22-tetraazatetracyclo[14.3.1.1(3,7).1(9,13)]docosa-1(20),3(22),4,6,9(21),10,12,16,18-nonaen-12-yl]-N′-(2-hydroxyethyl)urea trifluoroacetate]	8.00	–	8.96	8.46	8.82	–	–	–	–	–	–	22%
Nc1ccc2cc1CCc1cccc(c1)Nc1ncc(Cl)c(n1)N2 [Example B19, 6-Chloro-2,4,8,22-tetraazatetracyclo[14.3.1.1(3,7).1(9,13)]docosa-1(20),3(22),4,6,9(21),10,12,16,18-nonaen-12-amine dihydrochloride]	8.12	6.21	8.89	8.60	9.01	–	–	–	–	–	–	–
Cc1oncc1C(=O)N1CCC(NC(=O)Nc2ccc3cc2CCc2cccc(c2)Nc2ncc(Cl)c(n2)N3)CC1 [Example B264, N-[6-chloro-2,4,8,22-tetraazatetracyclo[14.3.1.1(3,7).1(9,13)]docosa-1(20),3(22),4,6,9(21),10,12,16,18-nonaen-12-yl]-N′-{1-[(5-methylisoxazol-4-yl)carbonyl]piperidin-4-yl}urea trifluoroacetate]	6.67	–	7.85	7.27	7.60	–	–	–	–	–	–	27%
CC(=O)Nc1ccc(S(=O)(=O)Nc2ccc3cc2CCc2cccc(c2)Nc2ncc(Cl)c(n2)N3)cc1 [Example B161, N-[4-({[6-Chloro-2,4,8,22-tetraazatetracyclo[14.3.1.1(3,7).1(9,13)]docosa-1(20),3(22),4,6,9(21),10,12,16,18-nonaen-12-yl]amino}sulfonyl)phenyl]acetamide trifluoroacetate]	8.07	–	8.80	8.59	8.96	–	–	–	–	–	–	58%
Cn1cc(C(=O)N2CCC(CC(=O)Nc3ccc4cc3CCc3cncc(c3)Nc3ncc(Cl)c(n3)N4)CC2)cn1 [Example A129, N-[6-Chloro-2,4,8,18,22-pentaazatetracyclo[14.3.1.1(3,7).1(9,13)]docosa-1(20),3(22),4,6,9(21),10,12,16,18-nonaen-12-yl]-2-{1-[(1-methyl-1H-pyrazol-4-yl)carbonyl]piperidin-4-yl}acetamide bis(trifluoroacetate)]	–	–	–	–	–	6.75	32%	7.92	7.62	7.77	–	–
